Tested on: duration of immobility (despair) in rodents
Test: Forced Swimming Test (FST)
Type: in vivo
Conditions: male BALB mice, imipramine
Description: Rodents are placed individually into an transparent acrylic cuboid containing 15 cm (for the mice) or 30 cm (for the rats) of water at 24+1° C. for 6 minutes. The durations of struggling, active movement and immobility in the test is recorded by an automatic device. A 15 minutes pre-test was performed 20-24 hours prior to the test. The duration of immobility is used as a parameter of despair in the rodents.
160-250 g of male Wistar rats were purchased from NSC (National Science Council, Taipei Taiwan). The animals were placed at constant ambient temperature (25±1° C.) with food and water available and on a 12:12-h LD cycle (lights on at 06:00, off at 18:00.)
The FST test as mentioned herein was performed.

SMILES: CN(C)CCCN1c2ccccc2CCc2ccccc21 [Imipramine]
- duration of immobility (in words): reduction in the duration of immobility

Reference: US20040180104A1, “Herbal composition for preventing and/or treating conditions in associated with depression” (priority 2003, published 2004)
